Data taken from ChEMBL document CHEMBL3880421, “Indazole compounds and pharmaceutical compositions for inhibiting protein kinases, and methods for their use” (2003).

experiment: Antiproliferative activity against VEGF-stimulated HUVEC cells assessed as reduction in cell viability at 10 nM preincubated for 1 hr followed by addition of VEGF measured after 72 hrs by MTT assay; assay type: functional; conditions: Homo sapiens

| SMILES | inhibition at 0.01 µM |
| --- | --- |
| O=C(Nc1cccc(Nc2ccc3c(/C=C/c4ccccc4)n[nH]c3c2)c1)C1CC2C=CC1CC2 (centres undefined) | 6% |
| O=C(Nc1cccc(Oc2ccc3c(/C=C/c4ccccc4)n[nH]c3c2)c1)C1CCOC1 (centres undefined) | 40% |
| O=C(Nc1cccc(Nc2ccc3c(/C=C/c4ccccc4)n[nH]c3c2)c1)C1CCOC1 (centres undefined) | -3% |
| CC(=O)N1CCC[C@@H]1C(=O)Nc1cccc(Oc2ccc3c(/C=C/c4ccccc4)n[nH]c3c2)c1 | 20% |
| CN1CSCCC1C(=O)Nc1cccc(C(=O)c2ccc3c(/C=C/c4ccccc4)n[nH]c3c2)c1 (centres undefined) | 8% |
| O=C1CCC(C(=O)Nc2cccc(Nc3ccc4c(/C=C/c5ccccc5)n[nH]c4c3)c2)CC1 | -7% |
| O=C1CC[C@H](C(=O)Nc2cccc(Nc3ccc4c(/C=C/c5ccccc5)n[nH]c4c3)c2)N1 | 20% |
| COC1CCCC(C(=O)Nc2cccc(Oc3ccc4c(/C=C/c5ccccc5)n[nH]c4c3)c2)C1 (centres undefined) | 91% |
| COc1ccc(C#N)c(C(=O)Nc2cccc(C(=O)c3ccc4c(/C=C/c5ccccc5)n[nH]c4c3)c2)c1 | -20% |
| C[C@@]12C[C@H]3C[C@H]1C[C@@]3(C(=O)Nc1cccc(C(=O)c3ccc4c(/C=C/c5ccccc5)n[nH]c4c3)c1)C2 | -1% |
| C/C(=C\C(=O)Nc1cccc(Nc2ccc3c(/C=C/c4ccccc4)n[nH]c3c2)c1)c1ccccc1C | 75% |
| O=C1NCC(C(=O)Nc2cccc(Nc3ccc4c(/C=C/c5ccccc5)n[nH]c4c3)c2)N1 (centres undefined) | 7% |
| O=C(/C=C/C(=O)Nc1cccc(Oc2ccc3c(/C=C/c4ccccc4)n[nH]c3c2)c1)NCC1CC1 | 36% |
| CC(=O)N1CCC(C(=O)Nc2cccc(Oc3ccc4c(/C=C/c5ccccc5)n[nH]c4c3)c2)CC1 | 42% |
| CC(C)[C@@H](O)C(=O)Nc1cccc(C(=O)c2ccc3c(/C=C/c4ccccc4)n[nH]c3c2)c1 | 33% |
| O=C(Nc1cccc(Oc2ccc3c(/C=C/c4ccccc4)n[nH]c3c2)c1)C1=C[C@@H](O)[C@@H](O)[C@H](O)C1 | 25% |
| Cc1cc(C(=O)Nc2cccc(C(=O)c3ccc4c(/C=C/c5ccccc5)n[nH]c4c3)c2)c(C)[nH]1 | 26% |
| O=C1C[C@H](C(=O)Nc2cccc(C(=O)c3ccc4c(/C=C/c5ccccc5)n[nH]c4c3)c2)NC(=O)N1 | -36% |
| CCC(C(=O)Nc1cccc(C(=O)c2ccc3c(/C=C/c4ccccc4)n[nH]c3c2)c1)c1ccccc1C (centres undefined) | 3% |
| Cc1cc(C(=O)Nc2cccc(Nc3ccc4c(/C=C/c5ccccc5)n[nH]c4c3)c2)nn1C | 95% |
| C/C=C(\C)C(=O)Nc1cccc(Nc2ccc3c(/C=C/c4ccccc4)n[nH]c3c2)c1 | 98% |
| Cc1ccc(C2(C(=O)Nc3cccc(Oc4ccc5c(/C=C/c6ccccc6)n[nH]c5c4)c3)CC2)cc1 | 4% |
| Cc1cc(C(=O)Nc2cccc(Nc3ccc4c(/C=C/c5ccccc5)n[nH]c4c3)c2)no1 | 6% |
| O=C(/C=C/C1C[C@H]2C=C[C@H]1C2)Nc1cccc(Nc2ccc3c(/C=C/c4ccccc4)n[nH]c3c2)c1 (some centres undefined) | 30% |
| O=C(CC1CC2CCC1C2)Nc1cccc(C(=O)c2ccc3c(/C=C/c4ccccc4)n[nH]c3c2)c1 (centres undefined) | 75% |
| O=C(c1cccc(NC(=O)C2CC3C=CCC(C3)C2)c1)c1ccc2c(/C=C/c3ccccc3)n[nH]c2c1 (centres undefined) | 56% |
| CC1(C)C(C(=O)Nc2cccc(C(=O)c3ccc4c(/C=C/c5ccccc5)n[nH]c4c3)c2)C1(C)C | 51% |

| SMILES | inhibition at 0.01 µM |
| --- | --- |
| CN(C)CCCC(=O)Nc1cccc(Oc2ccc3c(/C=C/c4ccccc4)n[nH]c3c2)c1 | 96% |
| O=C(Cc1cc(F)ccc1F)Nc1cccc(Nc2ccc3c(/C=C/c4ccccc4)n[nH]c3c2)c1 | 64% |
| O=C(Nc1cccc(Nc2ccc3c(/C=C/c4ccccc4)n[nH]c3c2)c1)C1CC2C=CCC(C2)C1 (centres undefined) | -17% |
| CC(C)C(=O)Nc1cccc(Oc2ccc3c(/C=C/c4ccccc4)n[nH]c3c2)c1 | 57% |
| O=C(Nc1cccc(Nc2ccc3c(/C=C/c4ccccc4)n[nH]c3c2)c1)c1cc(=O)[nH]c(=O)[nH]1 | 12% |
| Cn1cnc(CC(=O)Nc2cccc(Nc3ccc4c(/C=C/c5ccccc5)n[nH]c4c3)c2)c1 | -17% |
| CCCN(CCC)CC(=O)Nc1cccc(Oc2ccc3c(/C=C/c4ccccc4)n[nH]c3c2)c1 | 25% |
| O=C1CC[C@H](C(=O)Nc2cccc(C(=O)c3ccc4c(/C=C/c5ccccc5)n[nH]c4c3)c2)N1 | 32% |
| Cc1cc(C(=O)Nc2cccc(Nc3ccc4c(/C=C/c5ccccc5)n[nH]c4c3)c2)n[nH]1 | 86% |
| O=C1C[C@H](C(=O)Nc2cccc(Nc3ccc4c(/C=C/c5ccccc5)n[nH]c4c3)c2)NC(=O)N1 | 17% |
| Cc1cc(C(=O)Nc2cccc(Oc3ccc4c(/C=C/c5ccccc5)n[nH]c4c3)c2)n[nH]1 | 150% |
| O=C(c1cccc(NC(=O)C2CCCO2)c1)c1ccc2c(/C=C/c3ccccc3)n[nH]c2c1 (centres undefined) | 18% |
| O=C(Nc1cccc(Nc2ccc3c(/C=C/c4ccccc4)n[nH]c3c2)c1)c1cccc2cc[nH]c12 | 94% |
| O=C(Nc1cccc(Nc2ccc3c(/C=C/c4ccccc4)n[nH]c3c2)c1)c1cccc2[nH]ccc12 | 94% |
| C[C@@H](CC(=O)Nc1cccc(C(=O)c2ccc3c(/C=C/c4ccccc4)n[nH]c3c2)c1)c1ccccc1 | 52% |
| Cc1cc(C(=O)Nc2cccc(Nc3ccc4c(/C=C/c5ccccc5)n[nH]c4c3)c2)oc(=O)c1 | -8% |
| COc1cccc(CC(=O)Nc2cccc(C(=O)c3ccc4c(/C=C/c5ccccc5)n[nH]c4c3)c2)c1 | 87% |
| COc1ccc(C#N)c(C(=O)Nc2cccc(Nc3ccc4c(/C=C/c5ccccc5)n[nH]c4c3)c2)c1 | -18% |
| O=C(Nc1cccc(C(=O)c2ccc3c(/C=C/c4ccccc4)n[nH]c3c2)c1)C1=C[C@@H](O)[C@@H](O)[C@H](O)C1 | -20% |
| O=C1CCC(C(=O)Nc2cccc(Oc3ccc4c(/C=C/c5ccccc5)n[nH]c4c3)c2)CC1 | 59% |
| COc1cccc(/C=C/C(=O)Nc2cccc(C(=O)c3ccc4c(/C=C/c5ccccc5)n[nH]c4c3)c2)c1 | 35% |
| O=C(c1cccc(NC(=O)C2CC3C=CC2CC3)c1)c1ccc2c(/C=C/c3ccccc3)n[nH]c2c1 (centres undefined) | 42% |
| CC(C)=NOC(C)C(=O)Nc1cccc(C(=O)c2ccc3c(/C=C/c4ccccc4)n[nH]c3c2)c1 (centres undefined) | 28% |
| O=C(Nc1cccc(Oc2ccc3c(/C=C/c4ccccc4)n[nH]c3c2)c1)c1cc(=O)cco1 | 18% |
| O=C(/C=C/C1C[C@H]2C=C[C@H]1C2)Nc1cccc(C(=O)c2ccc3c(/C=C/c4ccccc4)n[nH]c3c2)c1 (some centres undefined) | 37% |
| COc1cccc(/C=C/C(=O)Nc2cccc(Nc3ccc4c(/C=C/c5ccccc5)n[nH]c4c3)c2)c1 | 30% |
| CC1(C)OC(=O)[C@H](CC(=O)Nc2cccc(Nc3ccc4c(/C=C/c5ccccc5)n[nH]c4c3)c2)O1 | 20% |

| SMILES | inhibition at 0.01 µM |
| --- | --- |
| CN(C)CCCC(=O)Nc1cccc(C(=O)c2ccc3c(/C=C/c4ccccc4)n[nH]c3c2)c1 | 24% |
| CN1CSCCC1C(=O)Nc1cccc(Oc2ccc3c(/C=C/c4ccccc4)n[nH]c3c2)c1 (centres undefined) | 23% |
| O=C1NCC(C(=O)Nc2cccc(Oc3ccc4c(/C=C/c5ccccc5)n[nH]c4c3)c2)N1 (centres undefined) | 40% |
| CC(C)=CC1C(C(=O)Nc2cccc(Nc3ccc4c(/C=C/c5ccccc5)n[nH]c4c3)c2)C1(C)C (centres undefined) | 16% |
| C[C@@H]1[C@H](C)[C@H](C)C[C@@H]1C(=O)Nc1cccc(Nc2ccc3c(/C=C/c4ccccc4)n[nH]c3c2)c1 | 7% |
| COc1cccc(/C=C/C(=O)Nc2cccc(Oc3ccc4c(/C=C/c5ccccc5)n[nH]c4c3)c2)c1 | 64% |
| CC(C)(C)c1ccc(C(=O)Nc2cccc(C(=O)c3ccc4c(/C=C/c5ccccc5)n[nH]c4c3)c2)o1 | 71% |
| CC(=O)N1CCC(C(=O)Nc2cccc(Nc3ccc4c(/C=C/c5ccccc5)n[nH]c4c3)c2)CC1 | 13% |
| CC(C)(C)c1ccc(C(=O)Nc2cccc(Nc3ccc4c(/C=C/c5ccccc5)n[nH]c4c3)c2)o1 | 60% |
| O=C(c1cccc(NC(=O)C2C[C@H]3C[C@@H]2CCC3O)c1)c1ccc2c(/C=C/c3ccccc3)n[nH]c2c1 (some centres undefined) | 27% |
| Cn1cnc(CC(=O)Nc2cccc(Oc3ccc4c(/C=C/c5ccccc5)n[nH]c4c3)c2)c1 | 20% |
| O=C(Nc1cccc(Oc2ccc3c(/C=C/c4ccccc4)n[nH]c3c2)c1)C1CC2C=CC1CC2 (centres undefined) | 13% |
| CN1CSCCC1C(=O)Nc1cccc(Nc2ccc3c(/C=C/c4ccccc4)n[nH]c3c2)c1 (centres undefined) | 0% |
| CN1CC(C(=O)Nc2cccc(C(=O)c3ccc4c(/C=C/c5ccccc5)n[nH]c4c3)c2)CC1=O (centres undefined) | 10% |
| O=C(Cc1cc(F)ccc1F)Nc1cccc(C(=O)c2ccc3c(/C=C/c4ccccc4)n[nH]c3c2)c1 | 80% |
| O=C(Nc1cccc(Oc2ccc3c(/C=C/c4ccccc4)n[nH]c3c2)c1)c1cccc2cc[nH]c12 | 68% |
| Cc1nc(S)sc1CC(=O)Nc1cccc(Oc2ccc3c(/C=C/c4ccccc4)n[nH]c3c2)c1 | 45% |
| O=C(c1cccc(NC(=O)c2cc(=O)[nH]c(=O)[nH]2)c1)c1ccc2c(/C=C/c3ccccc3)n[nH]c2c1 | 14% |
| COc1cccc(CC(=O)Nc2cccc(Oc3ccc4c(/C=C/c5ccccc5)n[nH]c4c3)c2)c1 | 86% |
| Cc1ccc(CCC(=O)Nc2cccc(C(=O)c3ccc4c(/C=C/c5ccccc5)n[nH]c4c3)c2)cc1 | 57% |
| O=C(CC1CC2CCC1C2)Nc1cccc(Oc2ccc3c(/C=C/c4ccccc4)n[nH]c3c2)c1 (centres undefined) | 78% |
| O=C(CCC(=O)N1CCCC1)Nc1cccc(Nc2ccc3c(/C=C/c4ccccc4)n[nH]c3c2)c1 | -8% |
| CC(=O)N1CCC(C(=O)Nc2cccc(C(=O)c3ccc4c(/C=C/c5ccccc5)n[nH]c4c3)c2)CC1 | 33% |
| CC(C)=NOC(C)C(=O)Nc1cccc(Oc2ccc3c(/C=C/c4ccccc4)n[nH]c3c2)c1 (centres undefined) | 80% |
| O=C(CCN1CCCCC1)Nc1cccc(Oc2ccc3c(/C=C/c4ccccc4)n[nH]c3c2)c1 | 52% |
